Patent EP0658342A1, “Antineoplastic pharmaceutical composition containing a fumagillol derivative” (Takeda Chemical Industries, Ltd., priority 1993, dated 1995)

Test system: Hormone-independent human prostatic cancer PC-3 strain cells
Assay: Tumor growth inhibitory activity against subcutaneously transplanted PC-3 tumors in Balb/c nu/nu mice (Experiments 1 and 2)
Type: in vivo
Settings: one-week intervals from 17th day; for Tumor size gain (mm³) mean±SD: Experiment 1, s.c. PC-3, Compound A 100 mg/kg s.c. (maltosyl-β-cyclodextrin inclusion compound), gain over size at first administration; for Tumor size ratio (T/C %): treated vs control group; for Tumor size gain (mm³) means±SD: Experiment 2, s.c. PC-3, Compound A 100 mg/kg s.c. (maltosyl-β-cyclodextrin inclusion compound)
Description: Hormone-independent human prostatic cancer PC-3 strain cells (hereinafter abbreviated as PC-3 cells) subcultured in vitro using a petri dish for tissue culture were removed from the dish wall by using 0.25% trypsin. The cells thus obtained were rinsed with Ham F-12K medium containing 10% serum and suspended in PBS (phosphate-buffered saline) so that the concentration of the cells became 3 x 10⁷/ml, and 100 µl of the resulting suspension was transplanted to the central part of the right side of the abdomens of Balb/c nu/nu mice (9 weeks old, male) with an injection syringe (25G needle). The tumor size was determined on the 17th day. The mice were divided into groups so that the mean tumor size of each groups was 96 to 97 mm³. Then administration of the drug prepared by the following method was started. The tumor size was determined with a caliper in terms of the major axis (a) and minor axis (b), and calculated from the following formula: 0.5 x a x b².
A 5% glucose solution was added to an inclusion compound of Compound A and maltosyl-β-cyclodextrin obtained in Reference Example 1 to adjust a dosage volume to 10 µl/g body weight of each mouse, and the resulting solution was administered to dorsal subcutaneous parts of mice.
The injection Randa (trade name, manufactured by Nippon Kayaku K.K., Japan) was used as cisplatin, dissolved in saline, adjusted to a dosage volume of 10 µl/g body weight of each mouse, and intraperitoneally administered to mice.
In the case of administration of Compound A alone and cisplatin alone, the first administration was carried out on the 17th day after the transplantation, and thereafter administrations were carried out at one-week intervals. In the case of concomitant administration of Compound A and cisplatin, cisplatin was administered on the 17th day after the transplantation, and Compound A was administered on the 21th day after the transplantation. Thereafter, each drug was administered at one-week intervals.
Tumor growth inhibitory activity was evaluated on the 49th day after the transplantation as follows. Each tumor size was determined on the 49th day, the tumor size on the day of the first administration was subtracted from the size on the 49th day, and the ratio (T/C%) of the tumor size of the drug administration group (T) to that of the control group (C) was calculated. The dose of the drug is indicated in terms of the weight of the drug (mg/kg body weight) per administration.
Mice bearing PC-3 cancer cells were prepared according to the same manner as that in Experiment 1. The tumor size was determined on the 17th day after the transplantation. Mice were divided into groups so that the average tumor size of each group was 108 to 109 mm³. Then drug administration was started. Preparation of the drug, determination of the tumor size, evaluation of tumor growth inhibitory activity, etc., were carried out according to the methods of Experiment 1.
In the case of administration of Compound A alone and cisplatin alone, the first administration was carried out on the 17th day after the transplantation, and thereafter administrations were carried out at one-week intervals.
The following three combinations of the drugs were administered. Cisplatin and Compound A were administered on the 17th day and 21th day after the transplantation, respectively, and thereafter each drug was administered at one-week intervals. These administrations are hereinafter referred to as Combination 1. Compound A and cisplatin were administered on the 17th day and 21th day after the transplantation, respectively, and thereafter each drug was administered at one-week intervals. These administrations are hereinafter referred to as Combination 2. Compound A and cisplatin were administered simultaneously on the 17th day after the transplantation, and thereafter each drug was administered at on-week intervals. These administrations are hereinafter referred to as Combination 3. […]

[1] = cisplatin 4 mg/kg i.p., evaluated 49th day
[2] = Experiment 1, s.c. PC-3, Compound A 100 mg/kg s.c., cisplatin 4 mg/kg i.p., evaluated 49th day
[3] = cisplatin 5 mg/kg i.p., evaluated 42th day
[4] = Experiment 2, s.c. PC-3, Compound A 100 mg/kg s.c., cisplatin 5 mg/kg i.p., evaluated 42th day

6-O-(N-chloroacetylcarbamoyl)fumagillol [Compound A]
Tumor size gain (mm³) mean±SD [1]: 591±242 mm³
Tumor size ratio (T/C %) [2]: 49%
Tumor size gain (mm³) means±SD [3]: 400±126 mm³
Tumor size ratio (T/C %) [4]: 30%

N.N.[Cl][Pt][Cl] [Cisplatin, cisplatin]
Tumor size gain (mm³) mean±SD [1]: 230±182 mm³
Tumor size ratio (T/C %) [2]: 19%
Tumor size gain (mm³) means±SD [3]: 345±163 mm³
Tumor size ratio (T/C %) [4]: 26%
